In patent US6548494B1, “Tricyclic inhibitors of poly(ADP-ribose) polymerases” (Agouron Pharmaceuticals, Inc., priority 1999, dated 2003):
“And” between values parts separate entries of the source, which are not always exact repeats. Equal entries are not always repeated. Where two headings read alike, the source gives them in different places.

What was measured:
[1] = target: purified PARP protein (Homo sapiens, UniProt P09874); experiment: PARP enzyme inhibition assay; format: biochemical
[2] = 20 nM purified PARP (5 nM for tight-binding inhibitors), 500 μM NAD+, 25° C., several values in one cell = repeat determinations, read-out: Inhibition Constant Ki

purified PARP protein, sequence (P09874 whole entry): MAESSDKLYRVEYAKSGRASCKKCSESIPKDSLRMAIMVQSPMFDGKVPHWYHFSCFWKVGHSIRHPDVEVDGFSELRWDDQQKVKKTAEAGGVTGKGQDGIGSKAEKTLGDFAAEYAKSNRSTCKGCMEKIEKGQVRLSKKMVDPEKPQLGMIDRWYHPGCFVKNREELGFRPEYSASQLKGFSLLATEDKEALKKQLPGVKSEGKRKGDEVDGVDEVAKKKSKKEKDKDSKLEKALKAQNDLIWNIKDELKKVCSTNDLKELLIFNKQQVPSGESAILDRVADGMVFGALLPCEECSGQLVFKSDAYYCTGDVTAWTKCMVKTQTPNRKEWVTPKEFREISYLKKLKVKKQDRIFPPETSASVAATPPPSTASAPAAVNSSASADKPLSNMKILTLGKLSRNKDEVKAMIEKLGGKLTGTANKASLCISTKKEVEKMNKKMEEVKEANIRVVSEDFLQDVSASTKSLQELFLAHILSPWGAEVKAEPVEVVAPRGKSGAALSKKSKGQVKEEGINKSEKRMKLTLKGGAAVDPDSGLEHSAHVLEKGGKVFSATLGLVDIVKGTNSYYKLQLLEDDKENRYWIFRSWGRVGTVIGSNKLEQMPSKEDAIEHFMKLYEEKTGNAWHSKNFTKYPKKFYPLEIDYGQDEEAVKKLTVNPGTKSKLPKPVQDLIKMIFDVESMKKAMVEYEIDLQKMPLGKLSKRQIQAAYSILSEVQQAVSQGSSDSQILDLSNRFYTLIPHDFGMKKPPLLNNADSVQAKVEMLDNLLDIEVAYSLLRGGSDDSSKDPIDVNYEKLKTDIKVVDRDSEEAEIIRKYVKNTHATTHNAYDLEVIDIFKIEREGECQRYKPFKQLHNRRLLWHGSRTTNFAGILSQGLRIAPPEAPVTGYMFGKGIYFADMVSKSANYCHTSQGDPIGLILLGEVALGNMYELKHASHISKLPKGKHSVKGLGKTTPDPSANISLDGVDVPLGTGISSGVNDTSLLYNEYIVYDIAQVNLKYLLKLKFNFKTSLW

Structure (SMILES)	Ki [1, 2]	melting point	Ki ([1]; Inhibition Constant Ki (nM)) [nM]	Ki ([1]; Inhibition Constant Ki (nM), 20 nM purified PARP (5 nM for tight-binding inhibitors), 500 μM NAD+, 25° C., several values in one cell = repeat determinations) [nM]
CCOC(OCC)c1ccc(-c2nc3cc(F)cc4c3n2CCNC4=O)cc1 [Example 79, 1-(4-Diethoxymethyl-phenyl)-4-fluoro-8,9-dihydro-7H-2,7,9a-triaza-benzo[cd]azulen-6-one]	11 nM	219 to 221 °C		
Cn1nnc(-c2ccc(-c3nc4cccc5c4n3CCNC5=O)cc2)n1 [Example 133, 1-[4-(2-Methyl-2H-tetrazol-5-yl)-phenyl]-8,9-dihydro-7H-2,7,9a-triaza-benzo[cd]azulen-6-one]	6.9 nM	280 °C (dec.)		
O=C1NCCn2c(-c3ccc(Oc4ccccc4)cc3)nc3cccc1c32 [Example 78, 1-(4-Phenoxyphenyl)-8,9-dihydro-7H-2,7,9a-triaza-benzo[cd]azulen-6-one]	5.2 nM	259 to 264 °C		
CC(=O)c1c(-c2ccc(F)cc2)n2c3c(cccc13)C(=O)NCC2 [Example 93, 7-Acetyl-6-(4-fluoro-phenyl)-3,4-dihydro-2H-[1,4]diazepino[6,7,1-hi]indol-1-one]		275 to 276 °C		306
CCOCCNCc1ccc(-c2nc3cccc4c3n2CCNC4=O)cc1 [Example 100, 1-{4-[(2-Ethoxyethylamino)-methyl]-phenyl}-8,9-dihydro-7H-2,7,9a-triaza-benzo[cd]azulen-6-one]	2.7 nM	138 to 140 °C		
O=C1NCCn2c(-c3ccc(-c4c[nH]cn4)cc3)nc3cccc1c32 [Example 147, 1-[4-(1H-Imidazol-4-yl)-phenyl]-8,9-dihydro-7H-2,7,9a-triaza-benzo[cd]azulen-6-one]	4 nM	> 198 °C (dec.)		
NC(=O)c1ccc(Oc2ccc(-c3nc4cccc5c4n3CCNC5=O)cn2)cc1 [Example 116, 4-[5-(6-Oxo-6,7,8,9-tetrahydro-2,7,9a-triaza-benzo[cd]azulen-1-yl)-pyridin-2-yloxy]-benzamide]	5.2 nM	244 to 248 °C (dec.)		
O=C1NCCn2c(NCc3ccccc3)nc3cccc1c32 [Example 145, 1-Benzylamino-8,9-dihydro-7H-2,7,9a-triaza-benzo[cd]azulen-6-one]	20 nM	186 °C (dec.)		
O=C1NCCn2c(-c3ccc(OCCO)cc3)nc3cccc1c32 [Example 120, 1-[4-(2-Hydroxy-ethoxy)-phenyl]-8,9-dihydro-7H-2,7,9a-triaza-benzo[cd]azulen-6-one]	7.3 nM	253 to 254 °C (dec.)		
CC(=O)c1cn2c3c(cccc13)C(=O)NCC2 [Example 164, 7-Acetyl-3,4-dihydro-2H-[1,4]diazepino[6,7,1-hi]indol-1-one]	606 nM	285 to 287 °C		
CCOC(OCC)c1ccc(-c2nc3cccc4c3n2CCNC4=O)cc1 [Example 56, 1-(4-Diethoxymethyl-phenyl)-8,9-dihydro-7H-2,7,9a-triaza-benzo[cd]azulen-6-one]	32 nM	213 to 215 °C		
O=C1NCCn2c(SCc3ccccc3)nc3cccc1c32 [Example 29, 1-Benzylsulfanyl-8,9-dihydro-7H-2,7,9a-triaza-benzo[cd]azulen-6-one]	24 nM	189 to 191 °C		
O=C1NCCn2c(-c3cccc(Oc4ccc(Cl)cc4)c3)nc3cccc1c32 [Example 62, 1-[3-(4-Chlorophenoxy)-phenyl]-8,9-dihydro-7H-2,7,9a-triaza-benzo[cd]azulen-6-one]	6.1 nM	211 to 212 °C		
O=C(c1ccccc1)c1cccc(-c2nc3cccc4c3n2CCNC4=O)c1 [Example 66, 1-(3-Benzoylphenyl)-8,9-dihydro-7H-2,7,9a-triaza-benzo[cd]azulen-6-one]	8.9 nM	237 to 238 °C (dec.)		

Further lines, with some results ahead:

Ki [1, 2]	melting point	Ki ([1]; Inhibition Constant Ki (nM)) [nM]	Structure (SMILES)	Ki ([1]; Inhibition Constant Ki (nM), 20 nM purified PARP (5 nM for tight-binding inhibitors), 500 μM NAD+, 25° C., several values in one cell = repeat determinations) [nM]
9.5 nM	304 to 306 °C		O=C1NCCn2c(C34CC5CC(CC(C5)C3)C4)nc3cccc1c32 [Example 117, 1-Tricyclo[3.3.1.1]dec-1-yl-8,9-dihydro-7H-2,7,9a-triaza-benzo[cd]azulene-6-one]	
8 nM	184 to 186 °C		CN(C)CCOc1ccc(-c2nc3cccc4c3n2CCNC4=O)cc1 [Example 124, 1-[4-(2-Dimethylamino-ethoxy)-phenyl]-8,9-dihydro-7H-2,7,9a-triaza-benzo[cd]azulen-6-one]	
4.5 nM	126 °C (dec.)		C#CCNCc1ccc(-c2nc3cccc4c3n2CCNC4=O)cc1 [Example 104, 1-(4-Prop-2-ynylaminomethyl-phenyl)-8,9-dihydro-7H-2,7,9a-triaza-benzo[cd]azulen-6-one]	
3.8 nM	370 to 372 °C (dec.)		O=C1NCCn2c(-c3ccc(-c4ccncc4)cc3)nc3cccc1c32 [Example 135, 1-(4-Pyridin-4-yl-phenyl)-8,9-dihydro-7H-2,7,9a-triaza-benzo[cd]azulen-6-one]	
13 nM and 14 nM and 15 nM	246 to 248 °C		CC(C)(C)c1nc2cccc3c2n1CCNC3=O [Example 22, 1-tert-Butyl-8,9-dihydro-7H-2,7,9a-triaza-benzo[cd]azulen-6-one]	
4.4 nM	215 to 217 °C (dec.)		CN(C)Cc1cccc(-c2nc3cc(F)cc4c3n2CCNC4=O)c1 [Example 70, 1-(3-Dimethylaminomethyl-phenyl)-4-fluoro-8,9-dihydro-7H-2,7,9a-triaza-benzo[cd]azulen-6-one]	
6.2 nM	121 to 122 °C		O=C1NCCn2c(-c3cccc(Oc4cccc(C(F)(F)F)c4)c3)nc3cccc1c32 [Example 61, 1-[3-(3-Trifluoromethyl-phenoxy)-phenyl]-8,9-dihydro-7H-2,7,9a-triaza-benzo[cd]azulen-6-one]	
6.2 nM	327 to 332 °C (dec.)		O=C1NCCn2c(-c3ccc[nH]3)nc3cccc1c32 [Example 95, 1-(1H-Pyrrol-2-yl)-8,9-dihydro-7H-2,7,9a-triaza-benzo[cd]azulen-6-one]	
	173 to 175 °C	249	O=C1NCCn2c(-c3ccc(F)cc3)c(-c3ccn[nH]3)c3cccc1c32 [Example 160, 6-(4-Fluoro-phenyl)-7-(2H-pyrazol-3-yl)-3,4-dihydro-2H-[1,4]diazepino[6,7,1-hi]indol-1-one]	
6 nM	280 to 284 °C (dec.)		O=C1NCCn2c(-c3ccc(Sc4ccc(Cl)cc4)nc3)nc3cccc1c32 [Example 108, 1-[6-(4-Chloro-phenylsulfanyl)-pyridin-3-yl]-8,9-dihydro-7H-2,7,9a-triaza-benzo[cd]azulen-6-one]	
17.3 nM	211 to 212 °C		CC(C)Cc1nc2cccc3c2n1CCNC3=O [Example 23, 1-Isobutyl-8,9-dihydro-7H-2,7,9a-triaza-benzo[cd]azulen-6-one]	
10.1 nM	226 °C (dec.)		O=C1NCCn2c(-c3ccno3)nc3cccc1c32 [Example 13, 1-Isoxazol-5-yl-8,9-dihydro-7H-2,7,9a-triaza-benzo[cd]azulen-6-one]	
7.4 nM	240 to 242 °C		CN1CCCC(c2ccc(-c3nc4cccc5c4n3CCNC5=O)cc2)C1 (stereo not drawn) [Example 144, 1-[4-(Methyl-piperidin-3-yl)-phenyl]-8,9-dihydro-7H-2,7,9a-triaza-benzo[cd]azulen-6-one]	
